Converted amounts (≈) assume the structure as drawn.
What was measured:
[1] = system: leukemia L-1210; assay: Antitumor activity against leukemia L-1210 implanted in BDF1 mice (ILS, 60 days survivors); format: in vivo
From the text: Test compounds were given to BDF1 mice 24 hrs after implantation of 10^6 cells of leukemia L-1210 in each animal, through single intraperitoneal administration, intraperitoneal administration for 5 successive days, single oral administration or oral administration for 5 successive days, whereupon the increase in life span (referred to as "ILS") and number of 60 days survivors of test animals were estimated, said test of antitumor activity being that according to the method of the National Cancer Center, Tokyo [A. Hoshi et al: Farmashia, 9 (1973), 464]. In the tests, the compounds were dissolved in physiological saline solution just before administration.
^a i.p.: intraperitoneal administration p.o: oral administration
D1 : single administration D1~5 : administration for 5
^b percentage calculated from mean survival time over control
^c survivors/six animals

[2] = system: Bacillus subtilis ATCC 6633; assay: Antibacterial activity, broth-dilution method; format: cell-based; conditions: ATCC6633
From the text: (§1) Using 6DCNU and 6MCαG, minimum inhibiting concentrations (referred to as "MIC") for various kinds of bacteria were estimated by means of the broth-dilution method.

[3] = system: Pseudomonas aeruginosa IFO 3080; assay: Antibacterial activity, broth-dilution method; format: cell-based; conditions: IFO3080
From the text: as §1

[4] = system: Shigella sonnei; assay: Antibacterial activity, broth-dilution method; format: cell-based
From the text: as §1

[5] = system: Staphylococcus aureus FDA 209P JC-1; assay: Antibacterial activity, broth-dilution method; format: cell-based; conditions: FDA209P
From the text: as §1

[6] = system: Proteus vulgaris AHU 1469; assay: Antibacterial activity, broth-dilution method; format: cell-based; conditions: AHU1469
From the text: as §1

[7] = system: Streptococcus faecalis AHU 1085; assay: Antibacterial activity, broth-dilution method; format: cell-based; conditions: Enterococcus faecalis, AHU1085
From the text: as §1

[8] = system: Mycobacterium smegmatis ATCC 607; assay: Antibacterial activity, broth-dilution method; format: cell-based; conditions: Mycolicibacterium smegmatis, ATCC607
From the text: as §1

[9] = system: Escherichia coli NIHJ JC-2; assay: Antibacterial activity, broth-dilution method; format: cell-based; conditions: NIHJJC2
From the text: as §1

[10] = system: Sarcina lutea ATCC 9341; assay: Antibacterial activity, broth-dilution method; format: cell-based; conditions: Micrococcus luteus, ATCC9341
From the text: as §1

[11] = system: Klebsiella pneumoniae IFM 3008; assay: Antibacterial activity, broth-dilution method; format: cell-based; conditions: IFM3008
From the text: as §1

[12] = Acute toxicity (LD50); format: in vivo, male Wister rats; conditions: for LD50 at 168 h: rat, in vivo, after 1 week
Experimental: Test compounds were dissolved in physiological saline solution just before their dosage and administered to male Wister rats, intraperitoneally, intravenously and orally. After 1 week, the LD50 of each compound was calculated from the mortality of the test animals by the Lichfield-Wilcoxon Method.
i.v.: intravenous administration

[13] = Diabetogenic activity (blood glucose concentration after intravenous administration); format: in vivo, male Wister rats
Experimental: 40-96 mg/kg of the test compounds were administered intravenously to starved male Wister rats weighing 240-260 g each, and the blood glucose concentrations of the test animals were estimated by the glucose exidase method [L. L. Saloman et al: Anal. Chem., 31 (1959), 453], in which test the compounds were dissolved in physiological saline solution just before administration. […]

[14] = Effect on respiration, blood pressure, heart rate and electrocardiogram; format: in vivo, Beagle dogs
Experimental: Beagle dogs of both sexes weighing about 10 kg were anesthetized with pentobarbital sodium (30 mg/kg, i.v.), and immobilized in the supine position. Test compounds dissolved in physiological saline solution were injected into the brachial veins of the animals and the arteries at cannulated positions were treated with heparin sodium as anticoagulant.
The respiration rate of each animal was estimated with a respirometer (Nihonkohden, RP-3) through a tracheal cannula, the blood pressure with an electro-haemodynamometer (Nihonkohden, MP-4T) attached surgically to the femoral artery, and the heart rate with a pulse-rate tachometer (Nihonkohden, RT-2) through the trigger pulse of the blood pressure.

[15] = Solubility in water at 25° C.; format: physicochemical

O=NN(CCCl)C(=O)NC[C@H]1OC(O)[C@H](O)[C@@H](O)[C@@H]1O (stereo partly drawn) [Example 6DCNU, 3-(D-glucopyranos-6-yl)-1-(2-chloroethyl)-1-nitrosourea]
ILS ([1]; 3.2 mg/kg/day, i.p. D1~5): > 310% | Survivors (60 days) ([1]; 3.2 mg/kg/day, i.p. D1~5): 2/6 | ILS ([1]; 6.3 mg/kg/day, i.p. D1~5): > 410% | Survivors (60 days) ([1]; 6.3 mg/kg/day, i.p. D1~5): 4/6 | ILS ([1]; 12.5 mg/kg/day, i.p. D1): > 426% | Survivors (60 days) ([1]; 12.5 mg/kg/day, i.p. D1): 4/6 | ILS ([1]; 12.5 mg/kg/day, i.p. D1~5): > 520% | Survivors (60 days) ([1]; 12.5 mg/kg/day, i.p. D1~5): 5/6 | ILS ([1]; 12.5 mg/kg/day, p.o. D1~5): > 123% | ILS ([1]; 15.0 mg/kg/day, i.p. D1~5): > 650% | Survivors (60 days) ([1]; 15.0 mg/kg/day, i.p. D1~5): 6/6 | ILS ([1]; 20.0 mg/kg/day, i.p. D1~5): > 670% | Survivors (60 days) ([1]; 20.0 mg/kg/day, i.p. D1~5): 6/6 | ILS ([1]; 25.0 mg/kg/day, i.p. D1): > 561% | Survivors (60 days) ([1]; 25.0 mg/kg/day, i.p. D1): 5/6 | ILS ([1]; 25.0 mg/kg/day, i.p. D1~5): > 540% | Survivors (60 days) ([1]; 25.0 mg/kg/day, i.p. D1~5): 5/6 | ILS ([1]; 25.0 mg/kg/day, p.o. D1~5): > 260% | Survivors (60 days) ([1]; 25.0 mg/kg/day, p.o. D1~5): 2/6 | ILS ([1]; 30.0 mg/kg/day, i.p. D1~5): > 315% | Survivors (60 days) ([1]; 30.0 mg/kg/day, i.p. D1~5): 3/6 | ILS ([1]; 35.0 mg/kg/day, p.o. D1~5): > 390% | Survivors (60 days) ([1]; 35.0 mg/kg/day, p.o. D1~5): 3/6 | ILS ([1]; 40.0 mg/kg/day, i.p. D1~5): > 225% | Survivors (60 days) ([1]; 40.0 mg/kg/day, i.p. D1~5): 2/6 | ILS ([1]; 50.0 mg/kg/day, i.p. D1): > 606% | Survivors (60 days) ([1]; 50.0 mg/kg/day, i.p. D1): 5/6 | ILS ([1]; 50.0 mg/kg/day, p.o. D1~5): > 442% | Survivors (60 days) ([1]; 50.0 mg/kg/day, p.o. D1~5): 3/6 | ILS ([1]; 70.0 mg/kg/day, i.p. D1): > 321% | Survivors (60 days) ([1]; 70.0 mg/kg/day, i.p. D1): 3/6 | ILS ([1]; 70.0 mg/kg/day, p.o. D1~5): > 370% | Survivors (60 days) ([1]; 70.0 mg/kg/day, p.o. D1~5): 3/6 | ILS ([1]; 100.0 mg/kg/day, i.p. D1): -3% | ILS ([1]; 100.0 mg/kg/day, p.o. D1~5): > 246% | Survivors (60 days) ([1]; 100.0 mg/kg/day, p.o. D1~5): 2/6 | ILS ([1]; 150.0 mg/kg/day, i.p. D1): -10% | ILS ([1]; 200.0 mg/kg/day, i.p. D1): -34% | antitumor activity, comparison in words ([1]; L-1210, BDF1 mice): superior to that of DCNU, GANU and 2MCαG, and is almost equal to that of 6MCαG | antitumor activity, in words ([1]; mouse, in vivo): excellent antitumor activity | antitumor activity in oral administration, in words ([1]; oral administration): high activity equal to that of 6MCαG in oral administration | MIC [2]: > 200 µg/mL | MIC [3]: > 200 µg/mL | MIC [4]: > 200 µg/mL | MIC [5]: > 200 µg/mL | MIC [6]: > 200 µg/mL | MIC [7]: > 200 µg/mL | MIC [8]: > 200 µg/mL | MIC [9]: > 200 µg/mL | MIC [10]: > 200 µg/mL | MIC [11]: > 200 µg/mL | LD50 at 168 h ([12]; ip): 90 mg/kg | LD50 at 168 h ([12]; iv): 85 mg/kg | LD50 at 168 h ([12]; po): 132 mg/kg | LD50, comparison in words ([12]; rats): higher than that of the other known compounds | Blood Glucose Concentration ([13]; 40 mg/kg i.v., 0 hr after treatment): 70.4 mg/dL | Blood Glucose Concentration ([13]; 40 mg/kg i.v., 2 hr after treatment): 73.3 mg/dL | Blood Glucose Concentration ([13]; 40 mg/kg i.v., 4 hr after treatment): 67.7 mg/dL | Blood Glucose Concentration ([13]; 40 mg/kg i.v., 7 hr after treatment): 68.2 mg/dL | Blood Glucose Concentration ([13]; 40 mg/kg i.v., 10 hr after treatment): 68.3 mg/dL | Blood Glucose Concentration ([13]; 40 mg/kg i.v., 24 hr after treatment): 69.9 mg/dL | Blood Glucose Concentration ([13]; 40 mg/kg i.v., 48 hr after treatment): 73.8 mg/dL | Blood Glucose Concentration ([13]; 60 mg/kg i.v., 0 hr after treatment): 72.0 mg/dL | Blood Glucose Concentration ([13]; 60 mg/kg i.v., 2 hr after treatment): 74.2 mg/dL | Blood Glucose Concentration ([13]; 60 mg/kg i.v., 4 hr after treatment): 78.3 mg/dL | Blood Glucose Concentration ([13]; 60 mg/kg i.v., 7 hr after treatment): 76.8 mg/dL | Blood Glucose Concentration ([13]; 60 mg/kg i.v., 10 hr after treatment): 79.2 mg/dL | Blood Glucose Concentration ([13]; 60 mg/kg i.v., 24 hr after treatment): 78.7 mg/dL | Blood Glucose Concentration ([13]; 60 mg/kg i.v., 48 hr after treatment): 79.4 mg/dL | Blood Glucose Concentration ([13]; 77 mg/kg i.v., 0 hr after treatment): 72.4 mg/dL | Blood Glucose Concentration ([13]; 77 mg/kg i.v., 2 hr after treatment): 75.3 mg/dL | Blood Glucose Concentration ([13]; 77 mg/kg i.v., 4 hr after treatment): 75.8 mg/dL | Blood Glucose Concentration ([13]; 77 mg/kg i.v., 7 hr after treatment): 79.8 mg/dL | Blood Glucose Concentration ([13]; 77 mg/kg i.v., 10 hr after treatment): 76.2 mg/dL | Blood Glucose Concentration ([13]; 77 mg/kg i.v., 24 hr after treatment): 78.2 mg/dL | Blood Glucose Concentration ([13]; 77 mg/kg i.v., 48 hr after treatment): 80.5 mg/dL | blood glucose concentrations versus control, in words ([13]; i.v., rats): substantially the same blood glucose concentrations as that in the control | diabetogenic activity, in words ([13]; rat, in vivo): low diabetogenic activity | maximum dosage without effect, comparison in words ([14]; Beagle dogs): highest dosage value | NOAEL ([14]; dog, in vivo, iv, injected into brachial veins, anesthetized Beagle dogs, read-out: maximum dosage not effected on respiration, blood pressure, heart rate and electrocardiogram): 70 mg/kg | solubility ([15]; amount soluble in 1 ml water at 25° C.): 750 mg/mL (≈ 2390 mM) | solubility in water, comparison in words ([15]; water, 25° C.): higher than that of both DCNU and 2MCαG and is almost equal to that of 6MCαG

From patent publication US4156777A, “Process for producing glucopyranose-nitrosourea compounds and novel compounds included therein” (Tokyo Tanabe Company, Limited, priority 1977, dated 1979)
